# Assay results as given in ChEMBL document CHEMBL1126462, “CP-99,711: a non-peptide glucagon receptor antagonist” (Bioorg Med Chem Lett, 1992).
# Experiments:
# [1] = species: Rattus norvegicus; experiment: Tested for its ability to increase cAMP production (in the absence of glucagon) in rat liver homogenates; no measurable agonist activity; format: functional
# [2] = species: Rattus norvegicus; experiment: Inhibitory concentration against glucagon receptor -stimulated cAMP production in rat liver homogenates; format: functional
# [3] = target: Glucagon receptor (Rattus norvegicus, UniProt P30082); experiment: Tested against glucagon receptor for its ability to displace radiolabeled ([125I]-glucagon) in […] liver
# Chain of Glucagon receptor (P30082 whole entry): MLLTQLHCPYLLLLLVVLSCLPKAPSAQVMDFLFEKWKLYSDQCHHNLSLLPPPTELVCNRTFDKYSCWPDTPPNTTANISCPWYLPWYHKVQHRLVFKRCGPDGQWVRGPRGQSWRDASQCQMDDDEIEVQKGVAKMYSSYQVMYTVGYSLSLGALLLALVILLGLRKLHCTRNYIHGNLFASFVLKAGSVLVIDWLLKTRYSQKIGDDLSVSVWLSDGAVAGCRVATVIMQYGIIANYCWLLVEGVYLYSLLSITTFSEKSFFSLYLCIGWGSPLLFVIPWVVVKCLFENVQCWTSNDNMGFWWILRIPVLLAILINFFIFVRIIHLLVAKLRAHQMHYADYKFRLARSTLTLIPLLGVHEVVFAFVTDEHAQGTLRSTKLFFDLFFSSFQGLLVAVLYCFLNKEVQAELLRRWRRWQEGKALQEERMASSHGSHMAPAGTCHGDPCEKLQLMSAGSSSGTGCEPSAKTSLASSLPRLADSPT
compound,measurement,setting,value
CN(C)CCCN(C)c1nc2cc(Cl)c(Cl)cc2nc1/C=C/c1ccccc1,IC50,[1],> 32 µM
same,IC50,[2],7 µM
same,IC50,[3],4 µM
